Measured values taken from ChEMBL document CHEMBL3046784, “Exploring QSAR of antiamoebic agents of isolated natural products by MLR, ANN, and RTO” (Med Chem Res, 2012).
In brackets after ≈: the same amount, converted by molar mass.

Test system: Entamoeba histolytica
Test: Antiamoebic activity against Entamoeba histolytica
Type: functional, organism-based
Conditions: Entamoeba histolytica; read-out: IC50

Question: For `C/C=C1/CN2CC[C@]34c5ccccc5N(C(C)=O)[C@H]3[C@H](COC(C)=O)[C@H]1C[C@H]24` [O-ACETYLISORETULINE], which IC50 is on record?
Answer: 23.2 µg/mL (≈ 61.1 µM)

Question: Which IC50 does the source give for `COc1cc2c3cc1Oc1c(O)c(OC)cc4c1[C@@H](Cc1ccc(O)c(c1)Oc1ccc(cc1)C[C@@H]3N(C)CC2)N(C)CC4` [OBAMEGINE] here?
Answer: 18.3 µg/mL (≈ 30.8 µM)

Question: How did the IC50 turn out when `CC[C@H]1CN2CCC3c4ccccc4NC3[C@@H]2C[C@@H]1C[C@H]1NCCc2c1[nH]c1ccccc21` (some centres undefined) [OCHROLIFUANINE A] was run?
Answer: 1.3 µg/mL (≈ 2.95 µM)

Question: Which IC50 does the source give for `COc1cc(O)c2c(=O)c(O)c(-c3ccc(OC)c(O)c3)oc2c1` [OMBUINE] here?
Answer: 70.3 µg/mL (≈ 213 µM)

Question: With `COc1ccc2cc1Oc1ccc(cc1)C[C@@H]1c3cc(c(OC)cc3CCN1C)Oc1c(OC)c(OC)cc3c1[C@@H](C2)N(C)CC3` [PHAEANTHINE] as the molecule, how does the IC50 read?
Answer: 10.8 µg/mL (≈ 17.4 µM)

Question: For `COc1cc(O)c2c(c1)C(=O)c1cc(C)cc(O)c1C2=O` [PHYSCION], which IC50 is on record?
Answer: 12.7 µg/mL (≈ 44.7 µM)

Question: Which IC50 does the source give for `O=C1C[C@@H](c2ccccc2)Oc2cc(O)cc(O)c21` [PINOCEMBRIN] here?
Answer: 80.8 µg/mL (≈ 315 µM)

Question: `COc1cc(O)c2c(c1)O[C@H](c1ccccc1)CC2=O` [PINOSTROBIN] was tested. Which IC50 did it give?
Answer: 184 µg/mL (≈ 682 µM)

Question: `CC[C@H]1CN2CCc3cc(OC)c(OC)cc3[C@@H]2C[C@@H]1CC1=NCCc2cc(O)c(OC)cc21` [PSYCHOTRINE] was tested. Which IC50 did it give?
Answer: 8.19 µg/mL (≈ 17.6 µM)

Question: For `COC1=C[C@@H](C)[C@@H]2C[C@H]3OC(=O)C[C@H]4C(C)=C(OC)C(=O)[C@H]([C@@]2(C)C1=O)[C@@]34C` [QUASSIN], which IC50 is on record?
Answer: 0.5 µg/mL (≈ 1.29 µM)

Question: With `C[C@H]1O[C@H](Oc2c(-c3ccc(O)c(O)c3)oc3cc(O)cc(O)c3c2=O)[C@@H](O)[C@@H](O)[C@@H]1O` [QUERCETIN-3-O-RHAMNOSIDE] as the molecule, how does the IC50 read?
Answer: 84.7 µg/mL (≈ 189 µM)

Question: Which IC50 does the source give for `O=c1c(O)c(-c2ccc(O)c(O)c2)oc2cc(O)cc(O)c12` [QUERCETIN] here?
Answer: 114 µg/mL (≈ 378 µM)

Question: How did the IC50 turn out when `C=C[C@H]1CN2CC[C@H]1C[C@@H]2[C@@H](O)c1ccnc2ccc(OC)cc12` [QUINIDINE] was run?
Answer: 16.6 µg/mL (≈ 51.2 µM)

Question: Which IC50 does the source give for `C=C[C@H]1CN2CC[C@H]1C[C@@H]2C(=O)c1ccnc2ccc(OC)cc12` [QUINIDINONE] here?
Answer: 7.4 µg/mL (≈ 23 µM)

Question: `C=C[C@H]1CN2CC[C@H]1C[C@H]2[C@H](O)c1ccnc2ccc(OC)cc12` [QUININE] was tested. Which IC50 did it give?
Answer: 14.8 µg/mL (≈ 45.6 µM)

Question: Which IC50 does the source give for `C/C=C1/CN2CC[C@]34c5ccccc5N(C(C)=O)[C@H]3[C@@H](C=O)[C@@H]1C[C@H]24` [RETULINAL] here?
Answer: 25.2 µg/mL (≈ 74.9 µM)

Question: For `C/C=C1\CN2CC[C@]34c5ccccc5N(C(C)=O)[C@H]3[C@@H](CO)[C@H]1C[C@H]24` [RETULINE], which IC50 is on record?
Answer: 21.9 µg/mL (≈ 64.7 µM)

Question: With `O=c1c(O[C@@H]2OC[C@@H](O)[C@H](O)[C@H]2O)c(-c2ccc(O)c(O)c2)oc2cc(O)cc(O)c12` [REYNOUTRIN] as the molecule, how does the IC50 read?
Answer: 109 µg/mL (≈ 251 µM)

Question: With `COC1=C[C@]23CCN(C)[C@H](Cc4ccc(OC)c(O)c42)C3=CC1=O` [SALUTARIDINE] as the molecule, how does the IC50 read?
Answer: 50 µg/mL (≈ 153 µM)

Question: How did the IC50 turn out when `CC[C@@H](C)C(=O)O[C@H]1C(=O)O[C@@H]2C[C@H]3C(C)=CC(=O)[C@@H](O)[C@]3(C)[C@H]3[C@@H](O)[C@H](O)[C@]4(C)OC[C@]32[C@@H]14` [SIMALIKALACTONE D] was run?
Answer: 0.047 µg/mL (≈ 0.0982 µM)

Question: Which IC50 does the source give for `O=C(/C=C/c1ccc(O)cc1)O[C@H]1[C@@H]2C=CO[C@@H](O[C@@H]3O[C@H](CO)[C@@H](O)[C@H](O)[C@H]3O)[C@@H]2[C@@]2(CO)O[C@@H]12` [SPECIOSIDE] here?
Answer: 0.198 µg/mL (≈ 0.39 µM)

Question: How did the IC50 turn out when `C/C=C1\CN2CC[C@]34c5ccccc5N5[C@@H]([C@H]6[C@@H]7N(C(C)=O)c8ccccc8[C@@]78CCN7C/C(=C\C)[C@@H]6C[C@H]78)OC[C@@H]([C@H]53)[C@H]1C[C@H]24` [STRYCHNOBILINE] was run?
Answer: 21.5 µg/mL (≈ 35 µM)

Question: `C=C[C@H]1CN2CC[C@@]3(C(=O)Nc4cc(O)ccc43)[C@@H]2C[C@@H]1C[C@H]1c2[nH]c3ccccc3c2CCN1C` [STRYCHNOFOLINE] was tested. Which IC50 did it give?
Answer: 25.1 µg/mL (≈ 51.9 µM)

Question: With `C=C[C@H]1CN2CCc3c([nH]c4c([C@H]5CCCN5C)c(O)ccc34)[C@@H]2C[C@@H]1C[C@H]1c2[nH]c3ccccc3c2CCN1C` [STRYCHNOPENTAMINE] as the molecule, how does the IC50 read?
Answer: 7.7 µg/mL (≈ 14 µM)

Question: `COc1cc2c3cc1Oc1c(OC)c(OC)c(O)c4c1[C@H](Cc1ccc(cc1)Oc1cc(ccc1O)C[C@@H]3N(C)CC2)N(C)CC4` [THALISOPIDINE] was tested. Which IC50 did it give?
Answer: 50 µg/mL (≈ 80 µM)

Question: With `COc1cc2c3cc1Oc1c(O)c(OC)cc4c1[C@H](Cc1ccc(O)c(c1)-c1cc(ccc1OC)C[C@H]3N(C)CC2)N(C)CC4` [TILIAGEINE] as the molecule, how does the IC50 read?
Answer: 19.2 µg/mL (≈ 31.6 µM)

Question: For `O=C(/C=C/c1ccc(O)cc1)OC[C@H]1O[C@@H](Oc2c(-c3ccc(O)cc3)oc3cc(O)cc(O)c3c2=O)[C@H](O)[C@@H](O)[C@@H]1O` [TILIROSIDE], which IC50 is on record?
Answer: 17.4 µg/mL (≈ 29.4 µM)

Question: Which IC50 does the source give for `COc1ccc2cc1Oc1ccc(cc1)CC1=NCCc3cc(OC)c4c(c31)Oc1cc3c(cc1O4)CCN(C)[C@H]3C2` [TRIGILLETIMINE] here?
Answer: 23.3 µg/mL (≈ 41.5 µM)

Question: How did the IC50 turn out when `CC[C@H]1CN2CCc3cc(OC)c(OC)cc3[C@@H]2C[C@@H]1C[C@H]1NCCc2c1[nH]c1ccc(O)cc21` [TUBULOSINE] was run?
Answer: 1.6 µg/mL (≈ 3.36 µM)

Question: How did the IC50 turn out when `C/C=C1/CN2CCc3c([nH]c4ccccc34)[C@@H]2C[C@@H]1Cc1nccc2c1[nH]c1ccccc12` [USAMBARENSINE] was run?
Answer: 0.49 µg/mL (≈ 1.13 µM)

Question: How did the IC50 turn out when `C=C[C@H]1CN2CCc3c([nH]c4ccccc34)[C@@H]2C[C@@H]1C[C@H]1c2[nH]c3ccccc3c2CCN1C` [USAMBARINE] was run?
Answer: 0.46 µg/mL (≈ 1.02 µM)

Question: `O=C(/C=C/c1ccc(O)c(O)c1)O[C@@H]1C2C=CO[C@H](O[C@@H]3O[C@H](CO)[C@@H](O)[C@H](O)[C@H]3O)C2[C@]2(CO)O[C@H]12` (some centres undefined) [VERMINOSIDE] was tested. Which IC50 did it give?
Answer: 0.0995 µg/mL (≈ 0.19 µM)

Question: For `COc1c(OC)c(O)c2c(=O)cc(-c3ccc(O)cc3)oc2c1OC` [XANTHOMICROL], which IC50 is on record?
Answer: 275 µg/mL (≈ 798 µM)

Question: `COC(=O)[C@]12OC[C@]34[C@H]([C@@H](O)[C@@H]1O)[C@@]1(C)C=C(O[C@@H]5O[C@H](CO)[C@@H](O)[C@H](O)[C@H]5O)C(=O)[C@@H](C)[C@@H]1C[C@H]3OC(=O)[C@H](OC(C)=O)[C@@H]24` [YADANZIOSIDE F] was tested. Which IC50 did it give?
Answer: 2.33 µg/mL (≈ 3.63 µM)
